{
  "source": "patent US20070249623A1",
  "about": "“1-(Indole-6-Carbonyl-D-Phenylglycinyl)-4-(1-Methylpiperidin-4-Yl)Piperazine D-Tartrate” (Eli Lilly and Company Patent Division, priority 2004, published 2007)",
  "key": {"Factor Xa": {"molecular_target": "Factor Xa (Homo sapiens, UniProt P00742)", "sequence (P00742 235-488 limits assumed)": "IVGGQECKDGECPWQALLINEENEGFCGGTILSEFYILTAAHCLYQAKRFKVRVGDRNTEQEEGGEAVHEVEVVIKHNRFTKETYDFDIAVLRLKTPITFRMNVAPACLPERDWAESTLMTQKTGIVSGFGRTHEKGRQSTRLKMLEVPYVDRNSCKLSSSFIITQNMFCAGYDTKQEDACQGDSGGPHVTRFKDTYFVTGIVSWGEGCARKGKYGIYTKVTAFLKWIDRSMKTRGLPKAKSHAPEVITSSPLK", "sequence (P00742 41-179 partner limits assumed)": "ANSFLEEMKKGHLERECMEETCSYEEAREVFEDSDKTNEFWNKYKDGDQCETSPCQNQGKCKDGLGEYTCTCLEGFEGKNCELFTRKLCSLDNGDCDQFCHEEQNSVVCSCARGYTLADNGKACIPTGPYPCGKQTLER", "details": "as disclosed in WO 00/76971; cited from earlier work"}, "[1]": {"experiment": "moisture sorption isotherm (vacuum microbalance)", "type": "physicochemical", "details": "ambient temperature, once the dihydrate had been formed", "description": "A moisture sorption isotherm of the D-tartrate crystals was also determined using a vacuum microbalance, with a 40° C. drying step prior to initial data collection. With the initial drying step, an initial 6% weight loss was observed, consistent with the removal of the waters of crystallization. As the relative humidity was increased, the sample resorbed water, with rehydration being completed when the relative humidity reached about 20%."}, "equilibrium solubility": {"experiment": "equilibrium solubility", "type": "physicochemical", "details": "thermodynamic from solid, 25° C., measured as the free base"}, "[2]": {"experiment": "solid form stability at high relative humidity and in aqueous suspension", "type": "physicochemical", "description": "Salts of 1-(indole-6-carbonyl-D-phenylglycinyl)-4-(1-methylpiperidin-4-yl)piperazine that form crystalline solids are disclosed in Examples 48a (hydrochloride salt) and 48b (difumarate salt) of WO 01/96323. […] Thus, the form disclosed in WO 02/100847 as Form 1 is obtained as thin needles. The thin needle morphology has disadvantages for formulation, however, because of, inter alia, clustering and low bulk density. […] The form disclosed in WO 02/100847 as Form 2 has the disadvantage, inter alia, that the particle size is very small, resulting in extremely slow filtration."}},
  "note": "Where two headings read alike, the source gives them in different places.",
  "data": [
    {"smiles": "CN1CCC(N2CCN(C(=O)[C@H](NC(=O)c3ccc4cc[nH]c4c3)c3ccccc3)CC2)CC1", "note": "[1-(indole-6-carbonyl-D-phenylglycinyl)-4-(1-methylpiperidin-4-yl)-piperazine]", "values": [
      {"measurement": "inhibition of Factor Xa", "setting": "Factor Xa", "value": "potent and selective inhibitor of Factor Xa"}
    ]},
    {"smiles": "CN1CCC(N2CCN(C(=O)[C@H](NC(=O)c3ccc4cc[nH]c4c3)c3ccccc3)CC2)CC1.O.O.O=C(O)C(O)C(O)C(=O)O", "note": "[D-tartrate crystals, 1-(Indole-6-carbonyl-D-phenylglycinyl)-4-(1-methylpiperidin-4-yl)piperazine D-Tartrate Dihydrate]", "values": [
      {"measurement": "stability of the dihydrate to relative humidity", "setting": "[1]", "value": "remained stable between 5 and 95% relative humidity"},
      {"measurement": "solubility thermodynamic", "setting": "equilibrium solubility; simulated gastric fluid, 0.01 M HCl, read-out: equilibrium solubility in 0.01 M HCl", "value": "≥ 125", "unit": "mg/mL"},
      {"measurement": "solubility thermodynamic", "setting": "equilibrium solubility; water, read-out: equilibrium solubility in water", "value": "≥ 126", "unit": "mg/mL"}
    ]},
    {"smiles": "CN1CCC(N2CCN(C(=O)[C@H](NC(=O)c3ccc4cc[nH]c4c3)c3ccccc3)CC2)CC1.O=C(O)/C=C/C(=O)O.O=C(O)/C=C/C(=O)O", "note": "[Form 1]", "values": [
      {"measurement": "form conversion under extremely high relative humidity", "setting": "[2]; above 80% relative humidity", "value": "convert to a different (higher) hydrate"},
      {"measurement": "form conversion in aqueous suspensions", "setting": "[2]; aqueous suspensions", "value": "convert into the form disclosed in WO 02/100847 as Form 2"}
    ]}
  ]
}
